Reference: patent US10428083B2, “Heterocyclylmethyl-thienouracile as antagonists of the adenosine-A2B-receptor” (BAYER PHARMA AKTIENGESELLSCHAFT, priority 2015, dated 2019)

What was measured:
[1] = biological target: human adenosine A1 receptor (Homo sapiens (Human), UniProt P30542); assay: Adenosine receptor radioligand binding assay, A1 ([3H]-DPCPX, CHO membranes); settings: radioligand [3H]-DPCPX, CHO membrane preparation; Cheng-Prusoff
Experimental: (§1) B-2. Adenosine Receptor Binding Assays
(§2) The binding properties of the test compounds on adenosine receptors were determined in binding studies with radioligands. For this purpose, membrane preparations of the human adenosine receptor subtypes were produced from cell lines having recombinant receptor expression (CHO cells for the A1 receptor, HEK293 cells for the A2a, A2b and A3 receptors). The following radioligands were used in the experiments: [^3H]-DPCPX for the A1 receptor, [^3H]-CGS 21680 for the A2a receptor, [^3H]-CPX for the A2b receptor and [^125I]-AB-MECA for the A3 receptor. The test substances were each tested in 8 different concentrations and 2 repeat tests per concentration. The displacement of the particular radioligand by the test compound was expressed as percentage inhibition of the specific binding of the controls. The IC50 values (concentration which brings about half-maximum inhibition of the specific binding of the controls) and the Hill coefficients (nH) were determined by a non-linear regression analysis, using the competition curves obtained from the mean values of the repeat tests and conducting a curve fit according to the Hill equation: Y=D+[A−D/1+(C/C50)^nH] (Y=specific binding; A=left-hand asymptote of the curve; D=right-hand asymptote of the curve; C=substance concentration; C50=IC50; nH=rise factor).
(§3) The inhibition constant (Ki) was calculated by the Cheng-Prusoff equation: Ki=IC50/(1+L/KD) (L=concentration of the radioligand in the assay; KD=receptor affinity of the radioligand for the receptor, determined with a Scatchard plot). [Literature: A1 receptor: Townsend-Nicholson, A. and Schofield, P. R., J. Biol. Chem. 269: 2373-2376 (1994); A2a receptor: Luthin, D. R. et al., Mol. Pharmacol. 47: 307-313 (1995); A2b receptor: Stehle, J. H. et al., Mol. Endocrinol. 6: 384-393 (1992) and Linden et al., Mol. Pharmacol. 56: 705-713 (1999); A3 receptor: Salvatore, C. A. et al., Proc. Natl. Acad. Sci. U.S.A. 90: 10365-10369 (1993) and Jacobson, K. A. et al., Neuropharmacology 36: 1157-1165 (1997)].
(§4) Table 2 below lists the Ki values thus determined from these binding assays for representative working examples: […]

[2] = biological target: T1, human adenosine A2b receptor (Homo sapiens (Human), UniProt P29275); assay: Adenosine receptor radioligand binding assay, A2b ([3H]-CPX, HEK293 membranes); settings: radioligand [3H]-CPX, HEK293 membrane preparation; Cheng-Prusoff
T1 sequence (P29275 whole entry): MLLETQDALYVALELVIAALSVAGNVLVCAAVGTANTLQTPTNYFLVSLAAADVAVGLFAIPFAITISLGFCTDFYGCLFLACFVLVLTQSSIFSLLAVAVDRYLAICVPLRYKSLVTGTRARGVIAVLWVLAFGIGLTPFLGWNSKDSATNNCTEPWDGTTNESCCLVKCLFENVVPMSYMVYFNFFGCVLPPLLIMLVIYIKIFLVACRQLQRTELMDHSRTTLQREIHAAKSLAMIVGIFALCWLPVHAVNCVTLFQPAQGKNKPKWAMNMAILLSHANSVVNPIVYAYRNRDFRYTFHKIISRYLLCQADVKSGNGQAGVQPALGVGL
Experimental: as §1, §2, §3, §4

[3] = biological target: human adenosine A2a receptor (Homo sapiens (Human), UniProt P29274); assay: Adenosine receptor radioligand binding assay, A2a ([3H]-CGS 21680, HEK293 membranes); settings: radioligand [3H]-CGS 21680, HEK293 membrane preparation; Cheng-Prusoff
Chain of human adenosine A2a receptor (P29274 whole entry): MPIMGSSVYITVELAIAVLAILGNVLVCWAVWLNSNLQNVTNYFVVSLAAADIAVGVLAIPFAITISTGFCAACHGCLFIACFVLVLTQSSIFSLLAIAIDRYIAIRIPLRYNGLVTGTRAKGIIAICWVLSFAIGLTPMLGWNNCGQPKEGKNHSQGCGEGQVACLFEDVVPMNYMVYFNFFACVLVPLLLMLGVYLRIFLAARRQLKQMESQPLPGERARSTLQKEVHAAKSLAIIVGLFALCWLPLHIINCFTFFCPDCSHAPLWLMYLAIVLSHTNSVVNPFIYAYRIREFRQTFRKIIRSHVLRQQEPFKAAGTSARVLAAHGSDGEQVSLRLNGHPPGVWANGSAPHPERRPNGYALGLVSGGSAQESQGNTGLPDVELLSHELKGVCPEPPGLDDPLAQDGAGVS
Experimental: as §1, §2, §3, §4

[4] = biological target: T1, human adenosine A2b receptor; assay: Cellular in vitro reporter gene test for A2b receptor activity (CHO-K1, CRE-luciferase, NECA stimulation); type: cell-based; settings: recombinant CHO-K1 cell line, CRE-luciferase reporter, antagonism of EC50 concentration of NECA; in some cases means of several determinations, rounded to two significant figures; read-out: A2b receptor IC50
Outline: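 CHO-K1 cells with CRE-driven luciferase; antagonists co-incubated with NECA at its EC50, determined in a pre-experiment on each test day. Luciferase read by luminescence 3 h after NECA addition.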

[5] = biological target: human adenosine A3 receptor (Homo sapiens (Human), UniProt P0DMS8); assay: Adenosine receptor radioligand binding assay, A3 ([125I]-AB-MECA, HEK293 membranes); settings: radioligand [125I]-AB-MECA, HEK293 membrane preparation; Cheng-Prusoff
Chain of human adenosine A3 receptor (P0DMS8 whole entry): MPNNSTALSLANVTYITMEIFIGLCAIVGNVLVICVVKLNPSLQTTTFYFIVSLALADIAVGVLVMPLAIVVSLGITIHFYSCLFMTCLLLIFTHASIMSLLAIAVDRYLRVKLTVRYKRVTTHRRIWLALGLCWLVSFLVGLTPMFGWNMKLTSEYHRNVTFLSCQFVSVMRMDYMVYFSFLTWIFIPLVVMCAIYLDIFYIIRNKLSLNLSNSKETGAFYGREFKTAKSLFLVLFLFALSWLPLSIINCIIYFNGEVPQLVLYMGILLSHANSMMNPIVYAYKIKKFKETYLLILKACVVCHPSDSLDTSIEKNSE
Experimental: as §1, §2, §3, §4

Chain of human adenosine A1 receptor (P30542 whole entry): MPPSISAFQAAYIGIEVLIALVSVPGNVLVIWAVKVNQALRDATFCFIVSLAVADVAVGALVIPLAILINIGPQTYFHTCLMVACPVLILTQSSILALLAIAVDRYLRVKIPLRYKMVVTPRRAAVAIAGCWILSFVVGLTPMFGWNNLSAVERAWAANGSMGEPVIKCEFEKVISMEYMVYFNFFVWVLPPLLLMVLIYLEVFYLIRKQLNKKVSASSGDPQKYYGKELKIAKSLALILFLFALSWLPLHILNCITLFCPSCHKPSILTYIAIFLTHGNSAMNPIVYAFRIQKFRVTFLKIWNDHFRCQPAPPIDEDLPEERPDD

SMILES	Ki [1] [nM]	Ki [2] [nM]	Ki [3] [nM]	IC50 [4] [nM]	Ki [5] [nM]
CCn1c(=O)c2c(C)c(Cn3cn[nH]c3=O)sc2n(CCC(F)(F)F)c1=O [Example 116, 3-Ethyl-5-methyl-6-[(5-oxo-1,5-dihydro-4H-1,2,4-triazol-4-yl)methyl]-1-(3,3,3-trifluoropropyl)thieno[2,3-d]pyrimidine-2,4(1H,3H)-dione]	3300	12	790	24	330
COCCn1c(=O)n(CC(C)(C)C)c(=O)c2c(C)c(CN3CCNC3=NC(=O)OC)sc21 [Example 462, Methyl [1-{[3-(2,2-dimethylpropyl)-1-(2-methoxyethyl)-5-methyl-2,4-dioxo-1,2,3,4-tetrahydrothieno[2,3-d]pyrimidin-6-yl]methyl}imidazolidin-2-ylidene]carbamate]	–	–	–	16	–
Cc1c(CN2CCNC(=O)C2=O)sc2c1c(=O)n(C(C)C)c(=O)n2CCC(F)(F)F [Example 478, 6-[(2,3-Dioxopiperazin-1-yl)methyl]-3-isopropyl-5-methyl-1-(3,3,3-trifluoropropyl)thieno[2,3-d]pyrimidine-2,4(1H,3H)-dione]	–	–	–	41	–
COCCn1c(=O)n(C(C)C)c(=O)c2c(C)c(CN3CCNC(=O)C3=O)sc21 [Example 479, 6-[(2,3-Dioxopiperazin-1-yl)methyl]-3-isopropyl-1-(2-methoxyethyl)-5-methylthieno[2,3-d]pyrimidine-2,4(1H,3H)-dione]	–	–	–	140	–
COCCn1c(=O)n(CC(F)(F)F)c(=O)c2c(C)c(CN3CCNC(=O)C3=O)sc21 [Example 486, 6-[(2,3-Dioxopiperazin-1-yl)methyl]-1-(2-methoxyethyl)-5-methyl-3-(2,2,2-trifluoroethyl)thieno[2,3-d]pyrimidine-2,4(1H,3H)-dione]	–	–	–	190	–
CCOCCn1c(=O)c2c(C)c(CN3CCNC(=O)C3=O)sc2n(CCCF)c1=O [Example 492, 6-[(2,3-Dioxopiperazin-1-yl)methyl]-3-(2-ethoxyethyl)-1-(3-fluoropropyl)-5-methylthieno[2,3-d]pyrimidine-2,4(1H,3H)-dione]	–	–	–	250	–
Cc1c(CN2CCN(C(C)C)C(=O)C2=O)sc2c1c(=O)n(CC(C)C)c(=O)n2CCCF [Example 496, 1-(3-Fluoropropyl)-3-isobutyl-6-[(4-isopropyl-2.3-dioxopiperazin-1-yl)methyl]-5-methylthieno[2,3-d]pyrimidine-2,4(1H,3H)-dione]	–	–	–	120	–
CCn1c(=O)c2c(C)c(CN3CC(=O)NCC3=O)sc2n(CCC(F)(F)F)c1=O [Example 497, 6-[(2,5-Dioxopiperazin-1-yl)methyl]-3-ethyl-5-methyl-1-(3,3,3-trifluoropropyl)thieno[2,3-d]pyrimidine-2,4(1H,3H)-dione]	–	–	–	730	–
[2H]C([2H])(c1sc2c(c1C)c(=O)n([C@H](C)C(F)(F)F)c(=O)n2CCOC)N1CCNC1=O [Example 501, 1-(2-Methoxyethyl)-5-methyl-6-[(2-oxoimidazolidin-1-yl)(dideutero)methyl]-3-[(2R)-1,1,1-trifluoropropan-2-yl]thieno[2,3-d]pyrimidine-2,4(1H,3H)-dione]	–	–	–	43	–
[2H]C([2H])(c1sc2c(c1C)c(=O)n([C@@H](C)C(F)(F)F)c(=O)n2CCOC)N1CCNC1=O [Example 502, 1-(2-Methoxyethyl)-5-methyl-6-[(2-oxoimidazolidin-1-yl)(dideutero)methyl]-3-[(2S)-1,1,1-trifluoropropan-2-yl]thieno[2,3-d]pyrimidine-2,4(1H,3H)-dione]	–	–	–	18	–

Compounds with a lower IC50 [4], results first:

Ki [1] [nM]	Ki [2] [nM]	Ki [3] [nM]	IC50 [4] [nM]	Ki [5] [nM]	SMILES
950	5.2	280	4.3	6800	CCn1c(=O)c2c(C)c(CN3CCNC3=O)sc2n(CC2CCO2)c1=O (single isomer, unassigned; enantiomer 1) [Example 66, 3-Ethyl-5-methyl-1-(oxetan-2-ylmethyl)-6-[(2-oxoimidazolidin-1-yl)methyl]thieno[2,3-d]pyrimidine-2,4(1H,3H)-dione (Enantiomer 1)]
330	2.4	120	5.1	11000	CCn1c(=O)c2c(C)c(CN3CCNC3=O)sc2n(CCOC)c1=O [Example 59, 3-Ethyl-1-(2-methoxyethyl)-5-methyl-6-[(2-oxoimidazolidin-1-yl)methyl]thieno[2,3-d]pyrimidine-2,4(1H,3H)-dione]
1100	2.7	270	6.4	160000	COCCn1c(=O)n(C(C)C)c(=O)c2c(C)c(CN3CCNC3=O)sc21 [Example 86, 3-Isopropyl-1-(2-methoxyethyl)-5-methyl-6-[(2-oxoimidazolidin-1-yl)methyl]thieno[2,3-d]pyrimidine-2,4(1H,3H)-dione]
590	2.8	100	4.2	14000	CCn1c(=O)c2c(C)c(Cn3cc[nH]c3=O)sc2n(CCOC)c1=O [Example 109, 3-Ethyl-1-(2-methoxyethyl)-5-methyl-6-[(2-oxo-2,3-dihydro-1H-imidazol-1-yl)methyl]thieno[2,3-d]pyrimidine-2,4(1H,3H)-dione]
1500	6.4	1700	8.1	–	CCn1c(=O)c2c(C)c(Cn3nc[nH]c3=O)sc2n(CCC(F)(F)F)c1=O [Example 113, 3-Ethyl-5-methyl-6-[(5-oxo-4,5-dihydro-1H-1,2,4-triazol-1-yl)methyl]-1-(3,3,3-trifluoropropyl)thieno[2,3-d]pyrimidine-2,4(1H,3H)-dione]
–	–	–	9.2	–	COC(=O)N=C1NCCN1Cc1sc2c(c1C)c(=O)n(CC(C)(C)C)c(=O)n2CCC(F)(F)F [Example 461, Methyl [1-{[3-(2,2-dimethylpropyl)-5-methyl-2,4-dioxo-1-(3,3,3-trifluoropropyl)-1,2,3,4-tetrahydrothieno[2,3-d]pyrimidin-6-yl]methyl}imidazolidin-2-ylidene]carbamate]
–	–	–	10	–	[2H]C([2H])(c1sc2c(c1C)c(=O)n(CC(F)(F)F)c(=O)n2CCOC)N1CCNC1=O [Example 500, 1-(2-Methoxyethyl)-5-methyl-6-[(2-oxoimidazolidin-1-yl)(dideutero)methyl]-3-(2,2,2-trifluoroethyl)thieno[2,3-d]pyrimidine-2,4(1H,3H)-dione]
–	–	–	5	–	Cc1c(Cn2cc[nH]c2=O)sc2c1c(=O)n(CC(C)(C)C)c(=O)n2CCC(F)(F)F [Example 505, 3-(2,2-Dimethylpropyl)-5-methyl-6-[(2-oxo-2,3-dihydro-H-imidazol-1-yl)methyl]-1-(3,3,3-trifluoropropyl)thieno[2,3-d]pyrimidine-2,4(1H,3H)-dione]
–	–	–	12	–	COCCn1c(=O)n(CC(C)(C)C)c(=O)c2c(C)c(Cn3cc[nH]c3=O)sc21 [Example 506, 3-(2,2-Dimethylpropyl)-1-(2-methoxyethyl)-5-methyl-6-[(2-oxo-2,3-dihydro-1H-imidazol-1-yl)methyl]thieno[2,3-d]pyrimidine-2,4(1H,3H)-dione]
–	–	–	5.1	–	[2H]C([2H])(c1sc2c(c1C)c(=O)n(C(C)C)c(=O)n2CCOC)N1CCNC1=NC#N [Example 512, [1-{[3-Isopropyl-1-(2-methoxyethyl)-5-methyl-2,4-dioxo-1,2,3,4-tetrahydrothieno[2,3-d]pyrimidin-6-yl](dideutero)methyl}imidazolidin-2-ylidene]cyanamide]
–	–	–	8.4	–	[2H]C([2H])(c1sc2c(c1C)c(=O)n(CC(F)(F)F)c(=O)n2CCOC)N1CCNC1=NC#N [Example 513, [1-{[1-(2-Methoxyethyl)-5-methyl-2,4-dioxo-3-(2,2,2-trifluoroethyl)-1,2,3,4-tetrahydrothieno[2,3-d]pyrimidin-6-yl](dideutero)methyl}imidazolidin-2-ylidene]cyanamide]
